Usually IC50 stands for the concentration at which inhibition is half-maximal.

The target in the assay is T1, recombinant human PDK1 (amino acids 51-556) (Homo sapiens, UniProt O15530).
T1 construct: containing amino acids 51-556 of the human PDK1 enzyme; made in house
T1 sequence (O15530 51-556): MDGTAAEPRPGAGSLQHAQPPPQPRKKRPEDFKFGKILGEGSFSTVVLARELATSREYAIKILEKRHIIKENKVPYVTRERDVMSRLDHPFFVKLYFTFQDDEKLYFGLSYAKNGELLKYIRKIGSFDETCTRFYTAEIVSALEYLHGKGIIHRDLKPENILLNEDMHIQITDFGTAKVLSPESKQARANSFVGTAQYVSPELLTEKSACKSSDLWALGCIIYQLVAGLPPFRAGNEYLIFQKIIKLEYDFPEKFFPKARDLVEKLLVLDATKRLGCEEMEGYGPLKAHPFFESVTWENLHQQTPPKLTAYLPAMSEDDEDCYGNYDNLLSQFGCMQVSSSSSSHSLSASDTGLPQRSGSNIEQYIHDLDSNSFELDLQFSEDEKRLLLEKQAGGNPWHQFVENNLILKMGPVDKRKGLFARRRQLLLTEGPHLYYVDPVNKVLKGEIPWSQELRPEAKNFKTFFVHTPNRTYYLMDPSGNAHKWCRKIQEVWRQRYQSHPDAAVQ
The experiment in a line: PDK1 IMAP fluorescence polarization kinase assay. Particulars: 10 nM PDK1, 100 nM peptide substrate, 100 nM PIFtide, 2.5 uM ATP, 1.5 hours. It counts as biochemical. Background: Polarisation of emitted light reports the rotation of a fluorescent probe.

With `Nc1ccc(N2CCC[C@@H](N)C2)c(NC(=O)c2csc(-c3cnn(Cc4cccs4)c3)n2)c1` [Compound 1, N-[5-amino-2-(3(R)-amino-1-piperidinyl)phenyl]-2-[1-(2-thienylmethyl)-1H-pyrazol-4-yl]-4-thiazolecarboxamide], the IC50 (numeric values) is 7 nM.

On to `CN(C)CCCn1cc(-c2nc(C(=O)Nc3cc(N)ccc3N3CCC[C@@H](N)C3)cs2)cn1` [Compound 2, N-[5-amino-2-(3(R)-amino-1-piperidinyl)phenyl]-2-[1-[3-(dimethylamino)propyl]-1H-pyrazol-4-yl]-4-thiazolecarboxamide], for which the IC50 (rated A-D) was 251 to 1000 nM.

In the case of `Nc1ccc(N2CCC[C@@H](N)C2)c(NC(=O)c2csc(-c3cnn(Cc4ccccc4)c3)n2)c1` [Compound 3, N-[5-amino-2-(3(R)-amino-1-piperidinyl)phenyl]-2-[1-(phenylmethyl)-1H-pyrazol-4-yl]-4-thiazolecarboxamide], the IC50 (rated A-D) lay within 1 to 50 nM.

Take `Nc1ccc(N2CCC[C@@H](N)C2)c(NC(=O)c2csc(-c3cnn(CCN4CCOCC4)c3)n2)c1` [Compound 4, N-[5-amino-2-(3(R)-amino-1-piperidinyl)phenyl]-2-[1-[2-(4-morpholinyl)ethyl]-1H-pyrazol-4-yl]-4-thiazolecarboxamide]: the concentration for half-maximal inhibition (IC50) (rated A-D) lay in the range of 251 to 1000 nM.

`CNC1(C(N)=O)CCN(c2ccc(N)cc2NC(=O)c2csc(-c3cnn(Cc4cccs4)c3)n2)CC1` [Compound 5, 1-[4-amino-2-[[[2-[1-(2-thienylmethyl)-1H-pyrazol-4-yl]-4-thiazolyl]carbonyl]amino]phenyl]-4-(methylamino)-4-piperidinecarboxamide]: the half-inhibitory concentration (IC50) (numeric values) worked out at 81 nM.

On to `NCC1CCN(c2c(F)cccc2NC(=O)c2csc(-c3cnn(Cc4cccs4)c3)n2)CC1` [Compound 6, N-[2-[4-(aminomethyl)-1-piperidinyl]-3-fluorophenyl]-2-[1-(2-thienylmethyl)-1H-pyrazol-4-yl]-4-thiazolecarboxamide], for which the 50% inhibitory concentration (IC50) (rated A-D) was in the range of 51 to 250 nM.

Consider `Nc1ccc(N2CCC3(CCCNC3)CC2)c(NC(=O)c2csc(-c3cnn(Cc4cccs4)c3)n2)c1` [Compound 7, N-[5-amino-2-(2,9-diazaspiro[5.5]undec-9-yl)phenyl]-2-[1-(2-thienylmethyl)-1H-pyrazol-4-yl]-4-thiazolecarboxamide], for which, under “numeric values”, the half-maximal inhibitory concentration (IC50) turned out to be 60 nM.

As for `NCC1CCN(c2ccc(N)cc2NC(=O)c2csc(-c3cnn(Cc4cccs4)c3)n2)CC1` [Compound 8, N-[5-amino-2-[4-(aminomethyl)-1-piperidinyl]phenyl]-2-[1-(2-thienylmethyl)-1H-pyrazol-4-yl]-4-thiazolecarboxamide], where the note is “rated A-D”, the IC50 fell in the range of 1 to 50 nM.

As to `Nc1ccc(N2CCC[C@@H](N)C2)c(NC(=O)c2csc(-c3cnn(Cc4ccncc4)c3)n2)c1` [Compound 9, N-[5-amino-2-(3(R)-amino-1-piperidinyl)phenyl]-2-[1-(4-pyridinylmethyl)-1H-pyrazol-4-yl]-4-thiazolecarboxamide], the half-inhibitory concentration (IC50) (rated A-D) lay within 51 to 250 nM.

For the compound `Nc1ccc(N2CC[C@@H](N)C2)c(NC(=O)c2csc(-c3cnn(Cc4cccs4)c3)n2)c1` [Compound 10, N-[5-amino-2-(3(R)-amino-1-pyrrolidinyl)phenyl]-2-[1-(2-thienylmethyl)-1H-pyrazol-4-yl]-4-thiazolecarboxamide], where the note is “rated A-D”, the IC50 was in the range of 1 to 50 nM.

Take `CCOC(=O)C1CCCN(c2ccc(N)cc2NC(=O)c2csc(-c3cnn(Cc4cccs4)c3)n2)C1` (stereo not drawn) [Compound 11, ethyl 1-[4-amino-2-[[[2-[1-(2-thienylmethyl)-1H-pyrazol-4-yl]-4-thiazolyl]carbonyl]amino]phenyl]-3-piperidinecarboxylate]: for the setting “rated A-D”, the half-maximal inhibitory concentration (IC50) was more than 1000 nM.

Consider `CCOC(=O)C1CCN(c2ccc(N)cc2NC(=O)c2csc(-c3cnn(Cc4cccs4)c3)n2)CC1` [Compound 12, ethyl 1-[4-amino-2-[[[2-[1-(2-thienylmethyl)-1H-pyrazol-4-yl]-4-thiazolyl]carbonyl]amino]phenyl]-4-piperidinecarboxylate], for which the half-inhibitory concentration (IC50) (rated A-D) lay within 251 to 1000 nM.
